ChEMBL document CHEMBL4014263, “Diterpenoids and Lignans from Cephalotaxus fortunei” (J Nat Prod, 2017)

Assays:
HL-60 [1] = experiment: Cytotoxicity against human HL60 cells assessed as growth inhibition at 10 uM by MTT assay relative to control; assay type: functional; settings: read-out: GI
A549 [2] = experiment: Cytotoxicity against human A549 cells assessed as growth inhibition at 10 uM by SRB assay relative to control; assay type: functional; settings: read-out: GI
A549 [3] = experiment: Cytotoxicity against human A549 cells by SRB assay; assay type: functional, cell-based
HL-60 [4] = experiment: Cytotoxicity against human HL60 cells by MTT assay; assay type: functional, cell-based

Compound	inhibition of growth at 10 µM (HL-60 [1]) [%]	inhibition of growth at 10 µM (A549 [2]) [%]	IC50 (A549 [3]) [nM]	IC50 (HL-60 [4]) [nM]
COc1cc(C[C@@]2(O)C(=O)O[C@@H](c3ccc(O)c(OC)c3)[C@@H]2CO)ccc1O	< 50	< 50	–	–
C[C@@H]1[C@@H](O)[C@@H]2OC(=O)[C@]13CC[C@@H]1C[C@@H](O)C[C@H](C)C4=C1[C@@H]3[C@@H]2C4=O	< 50	< 50	–	–
Cc1cc(=O)cc2c3c1C[C@@H]1[C@H]4OC(=O)[C@](CC2)([C@H](C)[C@H]4O)[C@]31O	< 50	< 50	–	–
COc1cc([C@@H]2Oc3cc(OC)c(OC)cc3[C@H]2CO)ccc1O	< 50	< 50	–	–
Cc1cc(=O)cc2c3c1[C@@H](O)[C@@H]1[C@H]4OC(=O)[C@](CC2)([C@H](C)[C@H]4O)[C@H]31	< 50	< 50	–	–
CC(CO)c1cc2c(cc1O)[C@@]1(C)CC[C@H](O)C(C)(C)[C@@H]1CC2=O (stereo not given in full)	< 50	< 50	–	–
C[C@@H]1[C@@H](O)[C@@H]2OC(=O)[C@]13CC[C@@H]1C[C@H](O)C[C@H](C)C4=C1[C@@H]3[C@@H]2C4=O	< 50	< 50	–	–
COc1ccc(C[C@@]2(O)C(=O)O[C@@H](c3ccc(OC)c(OC)c3)[C@@H]2CO)cc1OC	< 50	< 50	–	–
Cc1cc(=O)cc2c3c1C(=O)[C@@H]1[C@H]4OC(=O)[C@](CC2)([C@H](C)[C@H]4O)[C@H]31	–	–	1130	770
COc1cccc2c1C(=O)c1c(O)c3c(c(O)c1C2=O)C[C@@](O)(C(=O)CO)C[C@@H]3O[C@H]1C[C@H](N)[C@H](O)[C@H](C)O1 [DOXORUBICIN]	–	–	124	31
